Values quoted from earlier work in patent US20240139231A1, “METFORMIN COMPOSITIONS AND METHODS FOR TREATMENT OF DIABETES” (priority 2018, published 2024).

Key:
[1] = 500 mg/day co-administered with metformin, 12 weeks

SMILES | reduction of blood sugar levels, HbA1c measure, relative to metformin in combination with a placebo (type 2 diabetes mellitus; [1]) | reduction of blood sugar levels, fasting measure, relative to metformin in combination with a placebo (type 2 diabetes mellitus; [1]) | reduction of blood sugar levels, post-prandial measure, relative to metformin in combination with a placebo (type 2 diabetes mellitus; [1]) | effect on blood sugar when co-administered in lower amounts (type 2 diabetes mellitus; lower amounts, earlier reports by others) | time to maximum effect (blood glucose levels; depending on the dose) | low threshold dose at which effects on blood glucose levels become significant (blood glucose levels; in vivo) | time until effects begin to appear after the user starts taking the medication (blood glucose levels; in vivo)
O=C1O[C@H]([C@@H](O)CO)C(O)=C1O [ascorbic acid] | 1.5% | 7% | ca. 3% | no effect |  |  | 
CN(C)C(=N)NC(=N)N [metformin, Metformin] |  |  |  |  | within four to five days | 1,500 mg/day | ≤ 48 h
